For data set [1], the target named is Mitogen-activated protein kinase 9 (Homo sapiens, UniProt P45984). Kind of data set: Binding affinity to JNK2 (unknown origin) assessed as dissociation constant by SPR analysis. On the technique in general: SPR reads the build-up and loss of mass on a sensor chip optically.
In data set [2] the test system is THP-1. Kind of data set: Antiinflammatory activity against human THP-1 cells assessed as inhibition of LPS-stimulated IL6 mRNA expression pretreated for 2 hrs followed by stimulated with LPS by RT-qPCR analysis. The format is functional, cell-based. The settings on record: dose 2.5-10 µM. A general note: In qPCR the cycle at which signal appears reflects the starting amount.

Data set [3] relates to Mus musculus. As to the kind of experiment: Antiinflammatory activity against LPS-induced acute lung injury C57 mouse model assessed as improvement in alveolar structure at 20 mg/kg, po thrice at 12 hrs interval by hematoxylin and eosin dye based light microscopy. Format: functional, organism-based. To be noted: time 36.0 hrs.
Data set [4] in a line: Subacute toxicity in ICR mouse assessed as mortality at 500 to 100 mg/kg, IG measured for 10 days. The format is organism-based. To be noted: in vivo, po, 240 h, dose 500-100 mg/kg, time 10 day.
Data set [5] concerns the target c-Jun N-terminal kinase (Mus musculus) (UniProt Q91Y86+Q9WTU6+Q61831). Kind of data set: Inhibition of JNK phosphorylation in mouse J774A.1 cells assessed as decrease in LPS-stimulated JNK phosphorylation level pretreated at 10 uM for 1 hrs followed by induced with LPS for 40 mins by Western blot analysis. Format: cell-based. To be noted: J774.1, time 100.0 min. (In general: A western blot detects proteins with antibodies after separation by electrophoresis.)

The target of data set [6] is T1, Inhibitor of nuclear factor kappa-B kinase subunit beta (Homo sapiens) (UniProt O14920).
T1 sequence (whole entry): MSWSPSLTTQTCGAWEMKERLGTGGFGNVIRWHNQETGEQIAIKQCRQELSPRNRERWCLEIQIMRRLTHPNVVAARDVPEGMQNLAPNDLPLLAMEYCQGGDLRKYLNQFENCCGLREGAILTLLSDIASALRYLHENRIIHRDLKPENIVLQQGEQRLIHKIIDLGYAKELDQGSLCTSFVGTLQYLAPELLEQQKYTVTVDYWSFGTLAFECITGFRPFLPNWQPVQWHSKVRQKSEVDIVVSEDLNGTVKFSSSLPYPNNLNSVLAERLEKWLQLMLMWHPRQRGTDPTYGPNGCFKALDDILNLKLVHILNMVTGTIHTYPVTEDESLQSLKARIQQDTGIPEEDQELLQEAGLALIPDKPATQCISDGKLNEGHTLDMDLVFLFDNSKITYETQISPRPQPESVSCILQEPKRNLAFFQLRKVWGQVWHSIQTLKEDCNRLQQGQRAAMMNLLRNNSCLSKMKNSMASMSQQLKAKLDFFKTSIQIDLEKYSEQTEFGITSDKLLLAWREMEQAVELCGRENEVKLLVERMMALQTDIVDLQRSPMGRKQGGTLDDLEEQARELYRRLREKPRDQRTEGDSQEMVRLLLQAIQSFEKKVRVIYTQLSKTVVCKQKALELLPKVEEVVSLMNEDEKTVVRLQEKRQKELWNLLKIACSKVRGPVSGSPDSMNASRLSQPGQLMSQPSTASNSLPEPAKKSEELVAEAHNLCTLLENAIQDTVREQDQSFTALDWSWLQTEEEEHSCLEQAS
Kind of data set: Inhibition of IKKbeta (unknown origin) assessed as inhibition rate at 10 uM by SPR analysis relative to control.

Data set [7] is described as follows: Half life in Sprague-Dawley rat at 10 mg/kg, po measured upto 24 hrs by UPLC-MS/MS analysis. The settings on record: in vivo. Format: ADME, organism-based.
Data set [8] can be described thus: Subacute toxicity in ICR mouse assessed as pathological change in heart at 500 to 100 mg/kg, IG measured for 10 days by hematoxylin and eosin dye based light microscopy. Format: organism-based. The settings on record: in vivo, po, 240 h, dose 500-100 mg/kg, time 10 day.
Data set [9] deals with Mus musculus. As to the kind of experiment: Antiinflammatory activity against LPS-induced acute lung injury C57 mouse model assessed as decrease in LPS-induced IL-6 level in serum at 20 to 40 mg/kg, po thrice at 12 hrs interval followed 30 mins treated with LPS by ELISA. Format: functional, organism-based. The settings on record: dose 20-40 mg/kg, time 36.5 hrs.
The target in data set [10] is Mitogen-activated protein kinase 8 (Mus musculus) (UniProt Q91Y86). As to the kind of experiment: Binding affinity to JNK1 in protein lysate of LPS-stimulated mouse J774A.1 cells assessed as protein degradation in presence of pronase at 10 to 40 uM measured after overnight incubation by immunoblotting based drug affinity responsive target stability (DARTS) assay. The format is subcellular. The settings on record: J774.1, dose 10-40 µM.

Data set [11] has as its target T2, Mitogen-activated protein kinase kinase kinase 7 (Homo sapiens) (UniProt O43318).
T2 sequence (whole entry): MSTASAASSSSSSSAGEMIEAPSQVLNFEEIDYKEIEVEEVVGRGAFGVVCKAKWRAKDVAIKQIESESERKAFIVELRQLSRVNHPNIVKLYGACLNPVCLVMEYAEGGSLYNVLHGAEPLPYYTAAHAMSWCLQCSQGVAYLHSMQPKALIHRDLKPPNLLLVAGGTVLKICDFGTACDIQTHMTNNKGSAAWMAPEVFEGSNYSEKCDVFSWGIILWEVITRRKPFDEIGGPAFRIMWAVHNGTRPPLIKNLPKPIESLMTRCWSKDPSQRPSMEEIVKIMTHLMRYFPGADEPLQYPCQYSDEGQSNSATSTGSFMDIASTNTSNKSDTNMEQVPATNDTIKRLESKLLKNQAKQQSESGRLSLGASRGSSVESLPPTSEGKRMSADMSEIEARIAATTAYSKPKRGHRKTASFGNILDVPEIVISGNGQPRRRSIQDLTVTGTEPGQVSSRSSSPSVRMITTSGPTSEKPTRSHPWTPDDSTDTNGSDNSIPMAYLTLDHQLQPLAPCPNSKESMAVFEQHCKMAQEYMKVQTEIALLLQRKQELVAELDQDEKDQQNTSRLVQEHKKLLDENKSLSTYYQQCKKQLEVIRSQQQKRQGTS
As to the kind of experiment: Inhibition of TAK1 (unknown origin) assessed as inhibition rate at 10 uM by SPR analysis relative to control.

Data set [12] in a line: Subacute toxicity in ICR mouse assessed as pathological change in liver at 500 to 100 mg/kg, IG measured for 10 days by hematoxylin and eosin dye based light microscopy. The format is organism-based. To be noted: in vivo, po, 240 h, dose 500-100 mg/kg, time 10 day.
Data set [13] has as its target Transcription factor p65 (Mus musculus) (UniProt Q04207). Kind of data set: Inhibition of P65 entry into nucleus in mouse J774A.1 cells assessed as density quantification pretreated at 10 uM for 2 hrs followed by induced with LPS for 30 mins by immunofluorescence analysis. Format: cell-based. To be noted: J774.1, time 2.5 hrs.
For data set [14], the system named is Mus musculus. As to the kind of experiment: Antiinflammatory activity against LPS-induced septic shock mouse model assessed as improvement in LPS-induced weight loss at 20 mg/kg, po pretreated 1 hr before LPS administration measured upto 120 hrs. Format: functional, organism-based. To be noted: time <= 121.0 hrs.
Data set [15] in a line: Subacute toxicity in ICR mouse assessed as pathological change in spleen at 500 to 100 mg/kg, IG measured for 10 days by hematoxylin and eosin dye based light microscopy. Format: organism-based. To be noted: in vivo, po, 240 h, dose 500-100 mg/kg, time 10 day.
Data set [16] deals with Mus musculus. Kind of data set: Antiinflammatory activity against LPS-induced acute lung injury C57 mouse model assessed as reduction in LPS-induced p-p65 level in lung tissue at 40 mg/kg, po thrice at 12 hrs interval followed 30 mins treated with LPS by Western blot analysis. Format: functional, organism-based. The settings on record: time 36.5 hrs.
In data set [17] the test system is Mus musculus. As to the kind of experiment: Antiinflammatory activity against LPS-induced acute lung injury C57 mouse model assessed as reduction in LPS-induced p-JNK level in lung tissue at 40 mg/kg, po thrice at 12 hrs interval followed 30 mins treated with LPS by Western blot analysis. Format: functional, organism-based. The settings on record: time 36.5 hrs.

The results in this text go back to ChEMBL document CHEMBL5321290, “Discovery of the Diphenyl 6-Oxo-1,6-dihydropyridazine-3-carboxylate/carboxamide Analogue J27 for the Treatment of Acute Lung Injury and Sepsis by Targeting JNK2 and Inhibiting the JNK2-NF-κB/MAPK Pathway” (J Med Chem, 2023).

Structures are written as SMILES. Active and inactive are the calls of the source.

Sequence of Mitogen-activated protein kinase 9 (P45984 whole entry): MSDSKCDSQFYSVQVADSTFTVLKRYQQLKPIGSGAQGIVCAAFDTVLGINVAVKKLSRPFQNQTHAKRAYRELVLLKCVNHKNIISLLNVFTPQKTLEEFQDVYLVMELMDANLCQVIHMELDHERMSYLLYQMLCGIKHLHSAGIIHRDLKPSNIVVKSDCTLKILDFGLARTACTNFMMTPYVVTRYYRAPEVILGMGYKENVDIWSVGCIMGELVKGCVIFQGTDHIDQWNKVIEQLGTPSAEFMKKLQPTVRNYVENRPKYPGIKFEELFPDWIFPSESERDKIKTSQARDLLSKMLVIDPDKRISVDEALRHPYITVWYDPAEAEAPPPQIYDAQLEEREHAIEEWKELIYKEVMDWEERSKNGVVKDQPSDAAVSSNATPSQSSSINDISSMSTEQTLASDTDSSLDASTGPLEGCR
Sequence of c-Jun N-terminal kinase (Mus musculus) (Q61831 whole entry, looked up): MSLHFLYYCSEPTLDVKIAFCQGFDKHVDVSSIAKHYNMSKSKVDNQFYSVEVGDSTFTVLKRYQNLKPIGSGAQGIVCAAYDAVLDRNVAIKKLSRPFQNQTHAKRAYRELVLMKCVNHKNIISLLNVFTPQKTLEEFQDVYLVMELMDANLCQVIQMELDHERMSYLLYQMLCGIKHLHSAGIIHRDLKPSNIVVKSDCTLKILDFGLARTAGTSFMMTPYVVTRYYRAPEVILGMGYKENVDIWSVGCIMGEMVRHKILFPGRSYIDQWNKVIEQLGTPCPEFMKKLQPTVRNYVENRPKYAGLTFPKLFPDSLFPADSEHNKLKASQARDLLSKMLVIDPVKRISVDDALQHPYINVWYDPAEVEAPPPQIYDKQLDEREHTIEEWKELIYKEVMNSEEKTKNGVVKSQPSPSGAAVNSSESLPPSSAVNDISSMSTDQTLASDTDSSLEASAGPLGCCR
Sequence of c-Jun N-terminal kinase (Mus musculus) (Q91Y86 whole entry, looked up): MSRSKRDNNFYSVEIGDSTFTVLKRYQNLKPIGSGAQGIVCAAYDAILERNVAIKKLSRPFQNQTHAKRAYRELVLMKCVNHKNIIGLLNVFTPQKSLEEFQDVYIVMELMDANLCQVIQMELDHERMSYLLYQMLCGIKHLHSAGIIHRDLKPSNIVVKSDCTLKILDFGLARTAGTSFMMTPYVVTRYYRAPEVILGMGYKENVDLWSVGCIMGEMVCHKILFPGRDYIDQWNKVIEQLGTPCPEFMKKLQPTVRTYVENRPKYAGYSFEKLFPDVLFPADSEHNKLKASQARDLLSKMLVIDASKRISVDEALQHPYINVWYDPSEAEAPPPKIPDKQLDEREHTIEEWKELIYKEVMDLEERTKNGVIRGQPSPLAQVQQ
Sequence of c-Jun N-terminal kinase (Mus musculus) (Q9WTU6 whole entry, looked up): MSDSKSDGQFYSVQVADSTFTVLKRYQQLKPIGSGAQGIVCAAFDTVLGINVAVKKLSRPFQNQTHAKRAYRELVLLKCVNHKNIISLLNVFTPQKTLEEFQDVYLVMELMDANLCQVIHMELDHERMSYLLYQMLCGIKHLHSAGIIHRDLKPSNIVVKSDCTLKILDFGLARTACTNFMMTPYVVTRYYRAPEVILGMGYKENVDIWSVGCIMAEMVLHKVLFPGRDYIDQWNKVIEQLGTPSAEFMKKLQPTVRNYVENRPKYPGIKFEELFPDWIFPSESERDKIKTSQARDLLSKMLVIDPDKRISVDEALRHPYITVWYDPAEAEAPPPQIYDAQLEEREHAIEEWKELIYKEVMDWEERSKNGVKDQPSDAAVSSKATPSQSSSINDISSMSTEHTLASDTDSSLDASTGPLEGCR
Sequence of Transcription factor p65 (Mus musculus) (Q04207 whole entry): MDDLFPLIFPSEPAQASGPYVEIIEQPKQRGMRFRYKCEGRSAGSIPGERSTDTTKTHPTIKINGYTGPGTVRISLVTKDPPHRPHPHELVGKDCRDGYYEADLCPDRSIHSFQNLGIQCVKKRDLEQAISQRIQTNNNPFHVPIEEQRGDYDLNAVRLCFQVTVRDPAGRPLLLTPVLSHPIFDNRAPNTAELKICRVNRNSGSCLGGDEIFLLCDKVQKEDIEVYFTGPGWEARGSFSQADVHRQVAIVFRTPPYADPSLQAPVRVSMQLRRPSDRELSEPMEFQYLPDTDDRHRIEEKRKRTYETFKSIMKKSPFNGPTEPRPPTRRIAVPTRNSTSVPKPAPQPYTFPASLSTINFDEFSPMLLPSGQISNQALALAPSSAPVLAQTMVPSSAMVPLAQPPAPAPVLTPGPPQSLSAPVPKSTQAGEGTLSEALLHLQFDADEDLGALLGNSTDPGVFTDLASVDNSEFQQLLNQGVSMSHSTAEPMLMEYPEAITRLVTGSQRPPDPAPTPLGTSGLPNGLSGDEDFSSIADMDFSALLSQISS
Sequence of Mitogen-activated protein kinase 8 (Mus musculus) (Q91Y86 whole entry): as the sequence (Q91Y86 whole entry, looked up) above

The term Kd denotes a measure of binding affinity in units of concentration. The term inhibition denotes the change of the read-out against control, counted positive when it falls. As usually defined, the half-life is the time needed for the level to fall by half in the phase considered. Turning to `COc1cc2nccc(Oc3ccc(NC(=O)c4nn(-c5ccc(C)cc5)c(=O)cc4C)cc3)c2cc1OC`, in [1], the dissociation constant Kd is 79.2 µM. The Activity result in data set [2] is “Dose-Dependent Effect”; in [4] it was “Non-Toxic”; in data set [8] it was “Non-Toxic”; in data set [12], “Non-Toxic”; in data set [15], “Non-Toxic”. In addition, the outcome in data set [3] and in [10] was inactive. In addition, the inhibition result in [5] and in [13] was “Active” in each case. The values for the inhibition in data set [6] and in data set [11] were -3.77% and 8.85%, respectively. For the same compound, the half-life in data set [7] was 1.16 h. Besides, the result in data set [9], in data set [14], in data set [16] and in [17] was Active.
